Data as given in patent US6800297B2, “Porous COX-2 inhibitor matrices and methods of manufacture thereof” (Acusphere, Inc., priority 2000, dated 2004).

Experiment: In vitro dissolution of rofecoxib in T80/PBS
Type: physicochemical
Conditions: after 1 hour; PBS containing 0.08% Tween 80, 200 mL; FIG. 2, FIG. 3
Protocol: Rofecoxib containing materials (either tablets, or bulk rofecoxib powder, or porous rofecoxib matrix powder) containing 20-31 mg of rofecoxib were added to 200 mL of 5% dextrose at room temperature in a 600 mL beaker. For bulk rofecoxib powder and porous rofecoxib matrix powder the resulting suspension was stirred for 5 minutes. For tablets (either marketed rofecoxib tablets (VIOXX®) or porous rofecoxib matrix tablet) the resulting suspension was stirred for 3-4 minutes beyond the time required for complete tablet disintegration. A sample of the suspension (containing 0.050-0.077 mg of rofecoxib) was then transferred to the dissolution vessel.
Dissolution studies for rofecoxib were conducted in PBS (phosphate buffered saline) containing 0.08% Tween 80 (T80/PBS). The dissolution vessel was a 600 mL beaker containing 200 mL of T80/PBS, and was stirred Samples were removed via pipet and centrifuged for 5 minutes at 10,000 rpm. Samples were analyzed by HPLC for rofecoxib. Control samples (for total rofecoxib concentration in the suspension vessel) were removed via pipet, and dissolved in acetonitrile, and the resulting solutions analyzed by HPLC for rofecoxib. […]

CS(=O)(=O)c1ccc(C2=C(c3ccccc3)C(=O)OC2)cc1 [rofecoxib, 4-[4-(methylsulfonyl)phenyl]-3-phenyl-2(5H)-furanone]
percent dissolved (relative to total rofecoxib concentration in the suspension vessel): 41%
